This note sets out measurements from PubChem BioAssay AID2060886 (Molecular Pharmacology Branch, DTP, NCI, 2025).

The test system of the experiment is 653999-131-R-J2-PDC complex spheroids, growth inhibition. As to the kind of experiment: Anticancer human tumor 653999-131-R-J2-PDC patient-derived lung adenocarcinoma cell line growth inhibition [RAS]. Conditions: for viability, T/C: stronger effect = lower value. The source says: RAS pathway inhibitors in Combinations in Complex Spheroids
A high-throughput screen of multi-cell type tumor spheroids was designed to identify active combinations of RAS pathway inhibitors and targeted small molecules. Complex spheroids include a stromal component modeled by human endothelial cells (HUVEC) and fibroblasts modeled by human mesenchymal stem cells (MSCs). The concentration ranges selected for each drug and investigational agent were based upon clinically achievable concentrations if the clinical Cmax of the agent was known.
Compounds. The drugs and investigational agents: abemaciclib (NSC768073), cobimetinib (NSC768068), divarasib (GDC6063, NSC841802), docetaxel (NSC628503), GDC-1971 (RLY-1971, NSC841576), gemcitabine (NSC613327), inavolisib (NSC800729), ipatasertib (NSC767898), KB-0742 (NSC834161), MRTX-1133 (NSC836407), osimertinib (NSC779217), RMC-4630 (NSC839698), RMC-6236 (NSC851965), RMC-6291 (NSC852671), Ro-3306 (NSC812927), sapanisertib (NSC764658), SN-38 (NSC673596), staurosporine (NSC755774), SY5609 (NSC837396), and tovorafenib (DAY101, NSC766906), were obtained from the National Cancer Institute (NCI) Developmental Therapeutics Program Chemical Repository. The FDA-approved anticancer drug set is available from the NCI Developmental Therapeutics Program. […] The stock solutions were prepared in dimethyl sulfoxide (DMSO, Sigma-Aldrich, St. Louis, MO, cat. D2650) at 800-fold the tested concentration and stored at -70 degrees C prior to their use. All drugs and investigational agents were tested over a range starting from a high concentration at or near the clinical Cmax and decreasing in half-log increments. If the clinical Cmax for an agent had not been determined, the highest concentration tested was 10 microM.
Cell Culture. All cells were maintained in an incubator at 37 degrees C and 5% CO2 with 95% humidity. The PDC lines were cultured according to standard operating procedures established by the NCI PDMR. All PDCs were thawed and cultured in Matrigel-coated flasks prepared with a working solution of 1X Ham's F-12 nutrient mix, without supplementation (Invitrogen, Waltham, MA, cat. 11765054), 100 U/mL penicillin-streptomycin (Invitrogen, cat. 15140122), and 2.5% Matrigel (Corning Inc., Corning, NY, cat. 354248) for the first three passages. The 362531-283-R-J2-PDC and 782815-120-R-J1-PDC lines were cultured in 6C/Colon 1B media, which includes advanced DMEM/F-12 (Thermo Fisher Scientific, cat. 12634028), 10 mM HEPES (Thermo Fisher Scientific, cat. 15630080), 1X GlutaMAX supplement (Thermo Fisher Scientific, cat. 35050061), 0.1 mg/mL primocin (InvivoGen, San Diego, CA, cat. ant-pm-2), 10% defined fetal bovine serum, heat inactivated (HyClone Laboratories Inc., Logan, UT, cat. SH30070.03HI), 50% L-WRN conditioned media (ATCC, cat. CRL-3276), 1.25 mM N-Acetyl-L-cysteine (Sigma-Aldrich, cat. A9165), 10 mM nicotinamide (Sigma-Aldrich, cat. N0636), 1X B-27 supplement (Thermo Fisher Scientific, cat. 17504044), 1X N-2 supplement (Thermo Fisher Scientific, cat. 17502048), 50 ng/mL human EGF (Thermo Fisher Scientific, cat. PHG0311), and 10 microM Y-27632 dihydrochloride (Tocris Bioscience, cat. 1254). The K12877-001-R-J1-PDC line was cultured in 6I media, which includes all 6C/Colon 1B media plus 10 ng/mL human FGF-10 (PeproTech, cat. 100-26), 1 ng/mL human FGF-2 (PeproTech, cat. 100-18B), 1 µM prostaglandin E2 (Tocris Bioscience, cat. 2296), […] hydrocortisone (Sigma-Aldrich, cat. H4001), and […] bovine insulin (Sigma-Aldrich, cat. I6634). The K86415-001-R-J1-PDC line was cultured in 6D media, which includes all 6C/Colon 1B media components minus the L-WRN conditioned media. The 485176-168-R4-J1-PDC was cultured in PANC media, which includes all 6C/Colon 1B media plus 100 ng/mL human FGF-10 (PeproTech, cat. 100-26), 500 nM SB-431542 (Selleckchem, cat. S1067), and 10 nM gastrin (Tocris Bioscience, cat. 3006). […]

The viability, T/C is the ratio of treated to control. Broadly, the IC50 is the concentration at which inhibition is half-maximal.

Each structure is given as a SMILES string.
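Also: spheroids exposed to the agents for seven days before the readout.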

Turning to `O=C(c1ccc(F)c(F)c1Nc1ccc(I)cc1F)N1CC(O)([C@@H]2CCCCN2)C1`, the viability, T/C reads like this: (compound 0.01 µM) 77.5% [middle of 4 runs]; (compound 0.1 µM) 51.2% [middle of 4 runs]; (compound 0.316 µM) 28.2% [middle of 4 runs]; (compound 1 µM) 11.1% [middle of 4 runs]. The IC50 (curve of compound) was 112 nM [middle of 4 runs].
Regarding `CC1(C)CCC(Nc2ncc(C(F)(F)F)c(-c3c[nH]c4c(P(C)(C)=O)c(C#N)ccc34)n2)CN1` (stereo not given), the viability, T/C reads like this: (compound 0.000949 µM) 87.8% [middle of 4 runs]; (compound 0.003 µM) 75.3% [middle of 4 runs]; (compound 0.00949 µM) 72% [middle of 4 runs]; (compound 0.03 µM) 71.6% [middle of 4 runs]; (compound 0.0949 µM) 71.7% [middle of 4 runs]; (compound 0.3 µM) 61.9% [middle of 4 runs]. Besides, for the setting “curve of compound”, the IC50 is more than 0.3 µM.
Take `CC(C)NCC(C(=O)N1CCN(c2ncnc3c2C(C)CC3O)CC1)c1ccc(Cl)cc1` (stereo not given): the viability, T/C runs as follows: (compound 0.0316 µM) 96.7% [middle of 4 runs]; (compound 0.1 µM) 96.7% [middle of 4 runs]; (compound 0.316 µM) 77.1% [middle of 4 runs]; (compound 1 µM) 54.2% [middle of 4 runs]; (compound 3.16 µM) 46.6% [middle of 4 runs]; (compound 10 µM) 34.9% [middle of 4 runs].
With `O=C(c1ccc(F)c(F)c1Nc1ccc(I)cc1F)N1CC(O)([C@@H]2CCCCN2)C1` + CCn1c(-c2cccnc2C(C)OC)c2c3cc(ccc31)N1CCOC(CC(NC(=O)C(C(C)C)N(C)C(=O)C3(F)CCN(C(=O)C#CC(C)(C)N(C)C)CC3)C(=O)N3CCCC(N3)C(=O)OCC(C)(C)C2)C1, the IC50 worked out at 0.11 µM (curve of first compound, second compound 0.000949 µM); 0.122 µM (curve of first compound, second compound 0.003 µM); 0.0766 µM (curve of first compound, second compound 0.00949 µM); 0.0814 µM (curve of first compound, second compound 0.03 µM); 0.12 µM (curve of first compound, second compound 0.0949 µM); 0.082 µM (curve of first compound, second compound 0.3 µM). The viability, T/C by setting is: (second compound 0.000949 µM, first compound 0.00316 µM) 83.6%; (second compound 0.000949 µM, first compound 0.01 µM) 74.5%; (second compound 0.000949 µM, first compound 0.0316 µM) 68.5%; (second compound 0.000949 µM, first compound 0.1 µM) 55.8%; (second compound 0.000949 µM, first compound 0.316 µM) 20.6%; (second compound 0.000949 µM, first compound 1 µM) 12%. Also, the viability, T/C is, setting by setting: (second compound 0.003 µM, first compound 0.00316 µM) 82.5%; (second compound 0.003 µM, first compound 0.01 µM) 60%; (second compound 0.003 µM, first compound 0.0316 µM) 71.3%; (second compound 0.003 µM, first compound 0.1 µM) 50.8%; (second compound 0.003 µM, first compound 0.316 µM) 38.4%; (second compound 0.003 µM, first compound 1 µM) 15.4%. The viability, T/C reads like this: (second compound 0.00949 µM, first compound 0.00316 µM) 92.9%; (second compound 0.00949 µM, first compound 0.01 µM) 65.2%; (second compound 0.00949 µM, first compound 0.0316 µM) 63.7%; (second compound 0.00949 µM, first compound 0.1 µM) 52.3%; (second compound 0.00949 µM, first compound 0.316 µM) 30.1%; (second compound 0.00949 µM, first compound 1 µM) 13.2%. The viability, T/C is, setting by setting: (second compound 0.03 µM, first compound 0.00316 µM) 77.4%; (second compound 0.03 µM, first compound 0.01 µM) 57.8%; (second compound 0.03 µM, first compound 0.0316 µM) 64.5%; (second compound 0.03 µM, first compound 0.1 µM) 49.6%; (second compound 0.03 µM, first compound 0.316 µM) 26.2%; (second compound 0.03 µM, first compound 1 µM) 14.2%. The viability, T/C is, setting by setting: (second compound 0.0949 µM, first compound 0.00316 µM) 62%; (second compound 0.0949 µM, first compound 0.01 µM) 68.1%; (second compound 0.0949 µM, first compound 0.0316 µM) 66.5%; (second compound 0.0949 µM, first compound 0.1 µM) 51.7%; (second compound 0.0949 µM, first compound 0.316 µM) 31.4%; (second compound 0.0949 µM, first compound 1 µM) 13.5%. Besides, the viability, T/C (second compound 0.3 µM, first compound 0.00316 µM) was 65.3%; the viability, T/C (second compound 0.3 µM, first compound 0.01 µM) was 70.2%; the viability, T/C (second compound 0.3 µM, first compound 0.0316 µM) is 73.1%; the viability, T/C (second compound 0.3 µM, first compound 0.1 µM) was 43.4%; the viability, T/C (second compound 0.3 µM, first compound 0.316 µM) was 23.5%; the viability, T/C (second compound 0.3 µM, first compound 1 µM) is 10.4%.
